Measurements: patent US10481149B2
Like-named read-outs stand apart in the source and are kept apart here.

Key:
BSEP [1] = target: T1, BSEP (Canis lupus familiaris, UniProt B8K1W2); assay: Inhibition of BSEP activity (transport of taurocholate) in dog hepatocytes
T1 sequence (B8K1W2 1-1325): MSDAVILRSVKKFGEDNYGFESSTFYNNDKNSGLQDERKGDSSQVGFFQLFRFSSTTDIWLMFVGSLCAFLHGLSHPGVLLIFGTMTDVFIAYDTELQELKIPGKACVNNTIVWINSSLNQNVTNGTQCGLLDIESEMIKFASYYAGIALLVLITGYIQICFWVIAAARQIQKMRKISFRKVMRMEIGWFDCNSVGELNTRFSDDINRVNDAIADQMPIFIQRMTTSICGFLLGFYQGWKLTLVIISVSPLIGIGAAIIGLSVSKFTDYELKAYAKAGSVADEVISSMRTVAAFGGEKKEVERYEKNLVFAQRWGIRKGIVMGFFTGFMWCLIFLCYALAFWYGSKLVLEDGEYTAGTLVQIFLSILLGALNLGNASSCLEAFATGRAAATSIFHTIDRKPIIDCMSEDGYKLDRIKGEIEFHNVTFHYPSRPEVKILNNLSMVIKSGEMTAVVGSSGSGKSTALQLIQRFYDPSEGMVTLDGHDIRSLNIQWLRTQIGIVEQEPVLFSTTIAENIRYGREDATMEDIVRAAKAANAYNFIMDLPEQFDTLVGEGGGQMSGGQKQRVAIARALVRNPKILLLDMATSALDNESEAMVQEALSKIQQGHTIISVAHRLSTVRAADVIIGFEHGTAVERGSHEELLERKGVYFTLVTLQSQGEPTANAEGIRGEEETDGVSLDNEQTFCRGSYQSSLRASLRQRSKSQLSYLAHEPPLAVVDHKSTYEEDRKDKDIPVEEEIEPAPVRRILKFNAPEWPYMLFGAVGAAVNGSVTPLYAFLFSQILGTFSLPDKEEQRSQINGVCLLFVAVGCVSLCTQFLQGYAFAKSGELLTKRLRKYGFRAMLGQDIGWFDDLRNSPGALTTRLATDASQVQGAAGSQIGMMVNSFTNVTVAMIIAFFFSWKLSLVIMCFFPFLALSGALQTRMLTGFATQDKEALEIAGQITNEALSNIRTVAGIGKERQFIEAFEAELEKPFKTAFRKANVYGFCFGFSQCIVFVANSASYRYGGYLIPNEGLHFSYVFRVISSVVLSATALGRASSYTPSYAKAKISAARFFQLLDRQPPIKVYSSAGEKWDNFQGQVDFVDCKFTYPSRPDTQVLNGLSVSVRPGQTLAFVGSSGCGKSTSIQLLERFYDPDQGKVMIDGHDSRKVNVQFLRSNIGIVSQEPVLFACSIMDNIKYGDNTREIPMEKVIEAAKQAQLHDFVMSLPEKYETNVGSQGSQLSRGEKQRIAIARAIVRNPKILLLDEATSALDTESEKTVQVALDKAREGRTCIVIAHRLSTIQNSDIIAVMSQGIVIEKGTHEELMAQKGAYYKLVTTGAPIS

BSEP [2] = target: BSEP (Macaca fascicularis, UniProt D2CFL3); assay: in vitro; details: monkey, hepatocytes in suspension, probe glycocholate
BSEP [3] = target: T1, BSEP; assay: IC50 for inhibition of BSEP activity in dog hepatocytes; type: cell-based
Protocol: (§1) Kinetic parameters were calculated using standard Michaelis-Menten kinetics. IC50 values were determined using Prism software (La Jolla, Calif.) or median-effect equation. [Chou et al., Theoretical basis, experimental design, and computerized simulation of synergism and antagonism in Drug Combination Studies. Pharmacological Reviews 58, 621, 2006]

BSEP [4] = target: T2, BSEP (Rattus norvegicus, UniProt O70127); assay: IC50 for inhibition of BSEP activity in rat hepatocytes; type: cell-based
T2 sequence (O70127 1-1321): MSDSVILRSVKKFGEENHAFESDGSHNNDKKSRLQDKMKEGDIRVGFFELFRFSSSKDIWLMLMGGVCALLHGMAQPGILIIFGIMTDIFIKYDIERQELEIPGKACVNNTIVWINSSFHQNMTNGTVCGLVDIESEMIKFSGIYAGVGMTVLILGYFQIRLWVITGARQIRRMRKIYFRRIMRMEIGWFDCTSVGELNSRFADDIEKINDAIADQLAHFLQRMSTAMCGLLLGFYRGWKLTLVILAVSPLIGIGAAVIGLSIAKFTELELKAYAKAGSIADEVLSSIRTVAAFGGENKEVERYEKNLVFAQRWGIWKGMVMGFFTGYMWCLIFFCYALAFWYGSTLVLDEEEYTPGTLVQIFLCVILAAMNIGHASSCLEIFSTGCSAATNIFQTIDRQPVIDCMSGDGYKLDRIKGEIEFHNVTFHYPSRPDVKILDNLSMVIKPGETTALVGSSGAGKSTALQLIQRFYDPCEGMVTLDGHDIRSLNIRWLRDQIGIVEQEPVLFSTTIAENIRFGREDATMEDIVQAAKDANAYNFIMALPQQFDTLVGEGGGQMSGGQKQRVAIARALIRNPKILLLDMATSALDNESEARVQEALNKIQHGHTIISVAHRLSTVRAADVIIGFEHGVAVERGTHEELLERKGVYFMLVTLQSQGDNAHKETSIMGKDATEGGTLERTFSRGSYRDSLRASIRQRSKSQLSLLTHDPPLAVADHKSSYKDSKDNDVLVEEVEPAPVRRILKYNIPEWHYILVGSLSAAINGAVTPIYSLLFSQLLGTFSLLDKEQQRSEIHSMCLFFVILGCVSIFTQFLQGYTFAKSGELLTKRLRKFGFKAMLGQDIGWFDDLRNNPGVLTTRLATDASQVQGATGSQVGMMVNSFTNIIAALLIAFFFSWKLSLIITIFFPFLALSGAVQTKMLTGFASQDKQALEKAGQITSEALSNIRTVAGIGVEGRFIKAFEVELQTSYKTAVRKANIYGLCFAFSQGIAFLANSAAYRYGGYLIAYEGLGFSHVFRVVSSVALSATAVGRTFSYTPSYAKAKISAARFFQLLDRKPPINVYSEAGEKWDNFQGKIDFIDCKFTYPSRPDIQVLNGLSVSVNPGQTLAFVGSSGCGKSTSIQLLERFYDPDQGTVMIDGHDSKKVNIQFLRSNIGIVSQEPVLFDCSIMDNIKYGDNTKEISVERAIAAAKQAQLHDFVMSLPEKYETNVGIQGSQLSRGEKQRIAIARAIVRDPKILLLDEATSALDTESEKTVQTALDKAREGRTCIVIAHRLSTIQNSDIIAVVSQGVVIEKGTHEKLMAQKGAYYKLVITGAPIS
Protocol: as §1

[5] = hepatocytes in suspension, probe taurocholate

Sequence of BSEP (Macaca fascicularis, UniProt D2CFL3) (D2CFL3 1-1323): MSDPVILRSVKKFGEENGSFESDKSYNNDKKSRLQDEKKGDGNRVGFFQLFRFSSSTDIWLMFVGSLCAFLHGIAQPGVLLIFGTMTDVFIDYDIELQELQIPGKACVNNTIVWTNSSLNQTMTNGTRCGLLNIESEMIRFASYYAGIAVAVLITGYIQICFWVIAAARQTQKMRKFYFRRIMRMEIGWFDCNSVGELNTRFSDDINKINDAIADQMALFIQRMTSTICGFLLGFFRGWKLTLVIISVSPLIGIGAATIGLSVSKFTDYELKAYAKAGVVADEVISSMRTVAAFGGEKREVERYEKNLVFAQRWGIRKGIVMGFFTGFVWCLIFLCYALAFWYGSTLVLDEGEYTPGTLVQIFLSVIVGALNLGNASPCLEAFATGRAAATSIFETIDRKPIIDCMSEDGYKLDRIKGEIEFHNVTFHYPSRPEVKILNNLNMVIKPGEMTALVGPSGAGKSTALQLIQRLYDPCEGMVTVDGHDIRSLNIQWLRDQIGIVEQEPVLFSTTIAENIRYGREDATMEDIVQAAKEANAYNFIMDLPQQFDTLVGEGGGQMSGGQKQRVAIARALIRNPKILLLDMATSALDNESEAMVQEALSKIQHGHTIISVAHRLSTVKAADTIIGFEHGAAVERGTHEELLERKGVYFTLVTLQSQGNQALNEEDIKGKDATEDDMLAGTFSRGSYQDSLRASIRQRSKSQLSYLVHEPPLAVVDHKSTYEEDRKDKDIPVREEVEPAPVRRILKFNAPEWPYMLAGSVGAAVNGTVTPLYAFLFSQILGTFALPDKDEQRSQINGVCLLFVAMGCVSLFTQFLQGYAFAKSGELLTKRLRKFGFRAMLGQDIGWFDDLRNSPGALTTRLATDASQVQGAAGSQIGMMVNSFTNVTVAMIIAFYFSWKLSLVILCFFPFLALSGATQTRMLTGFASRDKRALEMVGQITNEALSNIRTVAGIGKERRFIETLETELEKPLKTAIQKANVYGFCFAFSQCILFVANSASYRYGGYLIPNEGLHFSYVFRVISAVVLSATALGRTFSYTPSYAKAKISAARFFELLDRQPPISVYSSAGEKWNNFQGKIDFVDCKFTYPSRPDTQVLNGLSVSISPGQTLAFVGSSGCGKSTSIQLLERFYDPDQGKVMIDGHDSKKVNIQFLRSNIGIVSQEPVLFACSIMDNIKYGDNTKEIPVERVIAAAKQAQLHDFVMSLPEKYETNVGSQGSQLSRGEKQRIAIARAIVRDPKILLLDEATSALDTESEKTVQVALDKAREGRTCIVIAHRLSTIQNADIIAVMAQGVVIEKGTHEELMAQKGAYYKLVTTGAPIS

Structure (SMILES): COC(=O)N[C@H](C(=O)N[C@@H](Cc1ccccc1)[C@@H](O)CN(Cc1ccc(-c2ccccn2)cc1)NC(=O)[C@@H](NC(=O)OC)C(C)(C)C)C(C)(C)C [Atazanavir, atazanavir]
- inhibition at 1 h, 1 μM (BSEP [1]; [5]): < 50%
- inhibition at 1 h, 10 μM (BSEP [1]; [5]): > 50%
- inhibition at 1 h, 1 μM (BSEP [2]): < 50%
- inhibition at 1 h, 10 μM (BSEP [2]): > 50%

Structure (SMILES): C[C@@H](Oc1cc(-c2cnn(C3CCNCC3)c2)cnc1N)c1c(Cl)ccc(F)c1Cl [Crizotinib, crizotinib]
- inhibition at 1 h, 1 μM (BSEP [1]; [5]): < 50%
- inhibition at 1 h, 10 μM (BSEP [1]; [5]): > 50%
- inhibition at 1 h, 1 μM (BSEP [2]): < 50%
- inhibition at 1 h, 10 μM (BSEP [2]): < 50%

Structure (SMILES): OC(Cn1cncn1)(Cn1cncn1)c1ccc(F)cc1F [Fluconazole, fluconazole]
- inhibition at 1 h, 1 μM (BSEP [1]; [5]): < 50%
- inhibition at 1 h, 10 μM (BSEP [1]; [5]): < 50%
- inhibition at 1 h, 1 μM (BSEP [2]): < 50%
- inhibition at 1 h, 10 μM (BSEP [2]): < 50%

Structure (SMILES): CC(=O)N1CCN(c2ccc(OCC3COC(Cn4ccnc4)(c4ccc(Cl)cc4Cl)O3)cc2)CC1 (centres unmarked) [Ketoconazole, ketoconazole]
- inhibition at 1 h, 1 μM (BSEP [1]; [5]): < 50%
- inhibition at 1 h, 10 μM (BSEP [1]; [5]): < 50%
- IC50 (BSEP [3]): 1 to 10 µM
- inhibition at 1 h, 1 μM (BSEP [2]): < 50%
- inhibition at 1 h, 10 μM (BSEP [2]): > 50%
- IC50 (BSEP [4]): > 10 µM

Structure (SMILES): Cc1c(O)cccc1C(=O)N[C@@H](CSc1ccccc1)[C@H](O)CN1C[C@H]2CCCC[C@H]2C[C@H]1C(=O)NC(C)(C)C [Nelfinavir, nelfinavir]
- inhibition at 1 h, 1 μM (BSEP [1]; [5]): < 50%
- inhibition at 1 h, 10 μM (BSEP [1]; [5]): > 50%
- inhibition at 1 h, 1 μM (BSEP [2]): < 50%
- inhibition at 1 h, 10 μM (BSEP [2]): > 50%

Structure (SMILES): CC(C)NCC(O)COc1cccc2ccccc12 (centres unmarked) [Propranolol, propranolol]
- inhibition at 1 h, 1 μM (BSEP [1]; [5]): < 50%
- inhibition at 1 h, 10 μM (BSEP [1]; [5]): < 50%
- inhibition at 1 h, 1 μM (BSEP [2]): < 50%
- inhibition at 1 h, 10 μM (BSEP [2]): < 50%

Structure (SMILES): O=c1c(O)c(-c2ccc(O)c(O)c2)oc2cc(O)cc(O)c12 [Quercetin, quercetin]
- inhibition at 1 h, 1 μM (BSEP [1]; [5]): < 50%
- inhibition at 1 h, 10 μM (BSEP [1]; [5]): > 50%
- inhibition at 1 h, 1 μM (BSEP [2]): < 50%
- inhibition at 1 h, 10 μM (BSEP [2]): < 50%

Structure (SMILES): C=C[C@H]1C[N@@]2CC[C@H]1C[C@@H]2[C@@H](O)c1ccnc2ccc(OC)cc12 [Quinidine, quinidine]
- inhibition at 1 h, 1 μM (BSEP [1]; [5]): < 50%
- inhibition at 1 h, 10 μM (BSEP [1]; [5]): < 50%
- inhibition at 1 h, 1 μM (BSEP [2]): < 50%
- inhibition at 1 h, 10 μM (BSEP [2]): < 50%

Structure (SMILES): CO[C@H]1/C=C/O[C@@]2(C)Oc3c(C)c(O)c4c(O)c(c(/C=N/N5CCN(C)CC5)c(O)c4c3C2=O)NC(=O)/C(C)=C\C=C\[C@H](C)[C@H](O)[C@@H](C)[C@@H](O)[C@@H](C)[C@H](OC(C)=O)[C@@H]1C [Rifampicin]
- IC50 (BSEP [3]): > 10 µM
- IC50 (BSEP [4]): 1 to 10 µM

Structure (SMILES): S=P(N1CC1)(N1CC1)N1CC1 [Thiotepa, thiotepa]
- inhibition at 1 h, 1 μM (BSEP [1]): < 50%
- inhibition at 1 h, 10 μM (BSEP [1]): < 50%
- inhibition at 1 h, 1 μM (BSEP [2]): < 50%
- inhibition at 1 h, 10 μM (BSEP [2]): < 50%

Structure (SMILES): Cc1c(C)c2c(c(C)c1O)CCC(C)(COc1ccc(CC3SC(=O)NC3=O)cc1)O2 (centres unmarked) [Troglitazone, troglitazone]
- inhibition at 1 h, 1 μM (BSEP [1]; [5]): < 50%
- inhibition at 1 h, 10 μM (BSEP [1]; [5]): > 50%
- IC50 (BSEP [3]): 1 to 10 µM
- inhibition at 1 h, 1 μM (BSEP [2]): > 50%
- inhibition at 1 h, 10 μM (BSEP [2]): > 50%
- IC50 (BSEP [4]): 1 to 10 µM

Structure (SMILES): CC[C@]1(O)C[C@@H]2CN(CCc3c([nH]c4ccccc34)[C@@](C(=O)OC)(c3cc4c(cc3OC)N(C)[C@H]3[C@@](O)(C(=O)OC)[C@H](OC(C)=O)[C@]5(CC)C=CCN6CC[C@]43[C@@H]65)C2)C1 [Vinblastine, vinblastine]
- inhibition at 1 h, 1 μM (BSEP [1]; [5]): < 50%
- inhibition at 1 h, 10 μM (BSEP [1]; [5]): < 50%
- inhibition at 1 h, 1 μM (BSEP [2]): < 50%
- inhibition at 1 h, 10 μM (BSEP [2]): < 50%
